These results are taken from ChEMBL document CHEMBL1201862, “PubChem BioAssay data set” (2004).

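The compound was tested at five concentrations on cells cultured in 96-well plates, with a 48-hour exposure period. GI50 is the concentration that inhibits growth by half.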 The source made the active and inactive calls. Cut-off read from the data, not from the text of the source: active = GI50 up to about 1.1 µM and inactive = higher. Bounds are passed on as bounds.

What all share (assay): NCI-60 cell line screen, 48 h
For assay [1], the system named is SK-OV-3.
The subject of assay [2] is OVCAR-3.
The test system of assay [3] is NCI-H460.
The subject of assay [4] is HT-29.
In assay [5] the test system is COLO 205.
For assay [6], the system named is SR.
The subject of assay [7] is SF-268.
Assay [8] concerns NCI/ADR-RES.
Assay [9] concerns OVCAR-4.
Assay [10] has as its system U-251.
The subject of assay [11] is SK-MEL-5.
For assay [12], the system named is T47D.
Assay [13] relates to HL-60.
Assay [14] concerns HCT-15.
For assay [15], the system named is SW-620.
The subject of assay [16] is HOP-92.
The test system of assay [17] is A498.
Assay [18] relates to TK-10.
Assay [19] relates to NCI-H226.

As for `COc1cc(OC)c2nccc(NCCCN(C)C)c2c1[N+](=O)[O-]`, the GI50 is > 100 µM (inactive) in assay [1]; 49.3 µM (inactive) in assay [2]; 65.3 µM (inactive) in [3]; 35 µM (inactive) in [4]; 34.1 µM (inactive) in assay [5]; 24.7 µM (inactive) in assay [6]. The GI50 in [7], in assay [8], in assay [9], in [10], in [11] and in [12] was > 100 µM (inactive) each time. The GI50 in assay [13] is 39.3 µM (inactive); in assay [14], over 100 µM; in assay [15], 95.9 µM (inactive); in assay [16], 61.1 µM (inactive); in assay [17], > 100 µM (inactive); in assay [18], > 100 µM (inactive).
As to `N#Cc1nc(/C=C/c2nc(C#N)c(N)o2)oc1N`, the GI50 in assay [1], in [3], in assay [4], in assay [19], in assay [5] and in [6] was > 10 µM (inactive) in each case. Besides, the GI50 in [7], in assay [8], in [9], in [11], in assay [12] and in assay [13] was > 10 µM (inactive) in each case. The GI50 in assay [14] is over 10 µM; in [15] it was > 10 µM (inactive); in [16], > 10 µM (inactive); in assay [18] it was > 10 µM (inactive).
Regarding `C=CCc1ccccc1C1CC2(C(=O)OC)OC1C(C(=O)OC)=C2C(=O)OC` (centres undefined), the GI50 in assay [1], in assay [2], in assay [3], in assay [4], in assay [19] and in assay [5] was > 10 µM (inactive) throughout. Moreover, the GI50 in [6], in assay [7], in assay [8], in assay [9], in [10] and in assay [11] was > 10 µM (inactive) in each case. Further, the GI50 in assay [12] was > 10 µM (inactive); in assay [13], > 10 µM (inactive); in assay [14] it was over 10 µM; in assay [15] it was > 10 µM (inactive); in assay [17] it was > 10 µM (inactive); in assay [18], > 10 µM (inactive).
As for `CCCC(=O)OC(OC(=O)CCC)c1ccc([N+](=O)[O-])o1`, the GI50 is > 100 µM (inactive) in assay [1]; 20.9 µM (inactive) in assay [2]; > 100 µM (inactive) in [3]; 22.6 µM (inactive) in assay [4]; 23.3 µM (inactive) in assay [5]; 18 µM (inactive) in assay [6]. Also, the GI50 was 65.6 µM (inactive) in assay [7]; 39.2 µM (inactive) in assay [8]; 34.3 µM (inactive) in assay [10]; 32.4 µM (inactive) in assay [11]; 21.4 µM (inactive) in assay [12]; 26.3 µM (inactive) in [13]. The GI50 in assay [14] is 15.7 µM; in assay [15], 20 µM (inactive); in assay [16], 22.9 µM (inactive); in assay [17], > 100 µM (inactive); in assay [18], 19.4 µM (inactive).
On to `CC1=C(C(=O)OCCc2ccc([N+](=O)[O-])cc2)C(c2ccccc2[N+](=O)[O-])C(C(=O)OC(C)C)=C(C)N1` (centres undefined), for which the GI50 in assay [1] was 5.81 µM (inactive); in [2] it was 5.08 µM (inactive); in assay [3] it was 2.6 µM (inactive); in assay [4] it was 5.07 µM (inactive); in assay [19] it was 5.45 µM (inactive); in assay [5] it was 6.01 µM (inactive). Further, the GI50 is 2.94 µM (inactive) in assay [6]; 5.55 µM (inactive) in assay [7]; 3.19 µM (inactive) in assay [8]; 37.9 µM (inactive) in [9]; 4.73 µM (inactive) in assay [10]; 2.24 µM (inactive) in assay [11]. The GI50 in [12] was 3.9 µM (inactive); in assay [13] it was 2.2 µM (inactive); in assay [14] it was 4.21 µM; in assay [15], 6.89 µM (inactive); in [18], 5.87 µM (inactive).
As for `O=c1oc2ccc([N+](=O)[O-])cc2c(Nc2ccc3c(c2)Sc2ccccc2O3)c1[N+](=O)[O-]`, the GI50 in [1] is 24 µM (inactive); in assay [2], 15.9 µM (inactive); in assay [3] it was 20.2 µM (inactive); in assay [4] it was 27.2 µM (inactive); in [19], 18.8 µM (inactive); in assay [5], 19.3 µM (inactive). The GI50 was 22.5 µM (inactive) in assay [6]; 27.5 µM (inactive) in [7]; 29.5 µM (inactive) in assay [8]; 32.3 µM (inactive) in assay [9]; 17.5 µM (inactive) in assay [10]; 20.3 µM (inactive) in [11]. Besides, the GI50 is 40.7 µM (inactive) in assay [12]; 18.6 µM (inactive) in assay [13]; 17.7 µM in assay [14]; 30.3 µM (inactive) in [15]; 16.3 µM (inactive) in [16]; 27.4 µM (inactive) in assay [18].
With `O=[N+]([O-])C(/C=C(\Cl)[N+](=O)[O-])=C(Nc1ccccc1)Nc1ccccc1`, the GI50 in [1] is 20.1 µM (inactive); in assay [2], 5.19 µM (inactive); in assay [3], 16.4 µM (inactive); in [4], 6.21 µM (inactive); in [5], 8.53 µM (inactive); in assay [6], 2.6 µM (inactive). Also, the GI50 in [7] is 14.3 µM (inactive); in assay [8], 7.93 µM (inactive); in assay [9] it was 6.76 µM (inactive); in [10] it was 14.3 µM (inactive); in [11] it was 13.3 µM (inactive); in assay [12] it was 7.43 µM (inactive). The GI50 was 2.59 µM (inactive) in assay [13]; 8.26 µM in assay [14]; 2.79 µM (inactive) in assay [15]; 4.69 µM (inactive) in assay [16]; 17.9 µM (inactive) in [17]; 12.8 µM (inactive) in assay [18].
Regarding `O=c1c(=O)c2cscc2c1=O`, the GI50 in assay [1] was > 25 µM (inactive); in assay [2] it was 5.62 µM (inactive); in assay [3], 7.76 µM (inactive); in assay [4], 4.93 µM (inactive); in assay [19], 5.55 µM (inactive); in assay [5] it was 4.73 µM (inactive). Besides, the GI50 was 0.137 µM (active) in assay [6]; 4.4 µM (inactive) in assay [7]; 8 µM (inactive) in [8]; 4.99 µM (inactive) in assay [9]; 4.75 µM (inactive) in assay [10]; 4.42 µM (inactive) in assay [11]. Further, the GI50 in assay [12] was 3.66 µM (inactive); in assay [14], 5.78 µM; in assay [15] it was 0.989 µM (active); in [16], 5.47 µM (inactive); in assay [17], > 25 µM (inactive); in assay [18], 4.56 µM (inactive).
As to `CC1(C)S[C@@H]2[C@H](NC(=O)/C=C/c3ccccc3)C(=O)N2[C@H]1C(=O)O`, the GI50 in assay [1], in assay [2], in assay [3], in assay [4], in assay [19] and in assay [5] was > 100 µM (inactive) each time. Also, the GI50 in [6], in [7], in [8], in assay [9], in [10] and in [11] was > 100 µM (inactive) throughout. Moreover, the GI50 in assay [12] is > 100 µM (inactive); in [13], > 100 µM (inactive); in [14] it was over 100 µM; in assay [15], > 100 µM (inactive); in [16], > 100 µM (inactive); in assay [18] it was > 100 µM (inactive).
Take `O=C1c2ccc3ccccc3c2CCC1N1CCCCC1` (centres undefined): the GI50 is 22 µM (inactive) in assay [1]; 15.4 µM (inactive) in assay [2]; 22 µM (inactive) in assay [3]; 20.5 µM (inactive) in assay [4]; 15.8 µM (inactive) in [19]; 19.5 µM (inactive) in [5]. The GI50 in [6] was 15.1 µM (inactive); in assay [7] it was 19.1 µM (inactive); in [8], 20.7 µM (inactive); in assay [9], 16.6 µM (inactive); in [10], 18.9 µM (inactive); in assay [11], 17 µM (inactive). Also, the GI50 in [12] was 21.2 µM (inactive); in [13] it was 21.9 µM (inactive); in assay [14], 20.2 µM; in [15], 17.6 µM (inactive); in [16] it was 16.6 µM (inactive); in [18] it was 16.1 µM (inactive).
Turning to `CC1CCC2C(C(=O)O[C@H]3C4C=CO[C@@H](OC5OC(CO)C(O)C(O)C5O)C4[C@@]4(CO)O[C@@H]34)=CO[C@@H](OC3OC(CO)C(O)C(O)C3O)C12` (some centres undefined), the GI50 in assay [1], in assay [2], in assay [3], in assay [4], in [19] and in assay [5] was > 10 µM (inactive) throughout. The GI50 in [7], in assay [8], in assay [9], in assay [10], in [11] and in assay [12] was > 10 µM (inactive) throughout. Further, the GI50 was > 10 µM (inactive) in assay [13]; over 10 µM in [14]; > 10 µM (inactive) in assay [15]; > 10 µM (inactive) in assay [16]; > 10 µM (inactive) in [17]; > 10 µM (inactive) in assay [18].
